Test results from patent publication US20040087539A1, “Method of treating conditions related to platelet activity” (priority 2003, published 2004).

Columns and labels:
platelets [1] = test: Low-dose α-thrombin-induced aggregation of washed platelets; type: cell-based, human
Protocol: (§1) Fresh blood from healthy volunteers was anticoagulated with 1/7 volume of ACD (2.5% trisodium citrate, 2% dextrose and 1.5% citric acid). Platelets were washed with CGS buffer (sodium chloride 0.12 M, trisodium citrate 0.0129 M and d-glucose 0.03 M, pH 6.5), resuspended in modified Tyrode's solution and allowed to incubate at 22° C. for 1 hours as previously described. In experiments using platelet-rich plasma (PRP), 1/10 volume of 3.8% trisodium citrate was used as anticoagulant. Platelet aggregation was measured using a turbidometric platelet aggregometer (Chrono-Log) at 37° C. vWF-dependent platelet aggregation was induced by addition of ristocetin or botrocetin to PRP. To differentiate CPIb-IX-mediated platelet agglutination from the second wave of integrin-dependent platelet aggregation, final concentrations of ristocetin were adjusted in each experiment to achieve a two-wave curve of aggregation. Washed platelets were used in platelet aggregation induced by a-thrombin (Enzyme Research Laboratories). To examine the effects of PKG, 100 μM of membrane permeable cGMP analogs, 8-bromo-cGMP or 8-dibutyl-cGMP (Calbiochem), or 1 μM sildenafil citrate (Pfizer) and added simultaneously with subthreshold concentrations of agonists. PKG inhibitors KT5823 (2 pM) and Rp-8PCPT-cGMP (0.2 mM) were preincubated with platelets at 37° C. for 5 minutes before addition of agonists.
In FIG. 5A, washed platelets were preincubated with 40 pg/mi anti-GPIba monoclonal antibody SZ2, integrin inhibitor RGDS, or inhibitors of PKG, KT5823 (2 μM) or Rp-8pCPT-cGMP (0.2 mM) (Calbiochem), for 5 min. Platelets also were preincubated with DMSO (vehicle for KT5823), KT5720 or buffer (Control) as controls. α-Thrombin (0.05 units/mi) then was added to induce platelet aggregation. Nonspecific JgG and RGES peptides also were examined as additional controls, but had no effect (not shown). In FIG. 5B, a subthreshold dose of thrombin was added to platelets immediately followed by addition of PKG activator 8-bromo-cGMP or buffer (Control). Shown in the figure are the representative results of at least three experiments.
(§2) In FIG. 6A, increasing concentrations of sildenafil or control 0.15 M NaCl solution were added to platelet-rich plasma followed by a subthreshold concentration of ristocetin. Platelet aggregation was recorded using a platelet aggregometer. In FIG. 6B, sildenafil or control buffer was added to washed platelets followed by addition of subthreshold doses of thrombin to induce platelet aggregation. It was noted that platelet aggregation occurs in the presence of sildenafil. The figure includes the representative results of at least three experiments.
(§3) In FIG. 7A, PRP was preincubated with 0.1 mM 8-bromo-cGMP for increasing lengths of time at 37° C. as indicated. The vWF modulator, ristocetin (1.25 mg/ml), then was added to induce platelet aggregation in a turbidometric platelet aggregometer. In FIG. 7B, PRP was preincubated with a high concentration of 8-bromo-cGMP (1 mM) for 5 minutes. Ristocetin then was added to induce platelet aggregation. In FIGS. 7C and 7D, washed platelets in modified Tyrode's solution were preincubated with 1 mM 8-bromo-cGMP (C), or various concentrations of 8-pCPT-cGMP (D) at 37° C. for 5 minutes. Thrombin (0.05 u/ml) then was added to induce platelet aggregation.

platelets [2] = test: Ristocetin-induced vWF-dependent platelet aggregation in platelet-rich plasma; type: cell-based, human
Protocol: as §1
In FIG. 3A, platelet rich-plasma (PRP) was preincubated at 37° C. for 5 mm with PKG inhibitors KT5823 (2 pM) or Rp-8pCPT-cGMP (0.2 μM). PRP was also incubated with DMSO (vehicle for KT5823), a PKA inhibitor, KT5720 (2 pM), or buffer (Control). The vWF modulator, ristocetin, was then added to induce vWF-GPIb-IX interaction. […] In FIG. 3B, a subthreshold concentration of ristocetin was added to PRP immediately followed by addition of 8-bromo-cGMP or buffer (Control). PRP also was preincubated with integrin inhibitor RGDS before adding ristocetin and 8-bromo-cGMP. In FIG. 3C, platelets were preincubated with or without PKG inhibitor KT5823, then allowed to spread on vWF-coated glass chamber slides. Platelets were stained with an anti-GPIb antibody, and fluorescein-labeled secondary antibody. The slides were imaged under a confocal microscope (magnification =630×).
as §2, §3

Nc1nc2c(nc(Br)n2[C@@H]2O[C@@H]3COP(=O)(O)O[C@H]3[C@H]2O)c(=O)[nH]1 [8-bromo-cGMP]
GPIb-IX-dependent platelet activation, agent added simultaneously with thrombin (platelets [1]; 8-bromo-cGMP 100 μM, FIG. 5): promoted
platelet aggregation together with a subthreshold concentration of thrombin (platelets [1]; washed platelets, thrombin 0.02 units/ml, FIGS. 5B, 6B): induced platelet aggregation
preincubation time required to inhibit platelets (platelets [2]; 1 mM 8-bromo-cGMP, FIGS. 7B, 7C): less than 5 minutes
preincubation time after which the inhibitory effect on platelet aggregation becomes significant (platelets [2]; 8-bromo-cGMP 100 μM (0.1 mM), PRP, 37° C., ristocetin 1.25 mg/ml, FIG. 7A): 10 min
GPIb-IX-dependent platelet activation, agent added simultaneously with ristocetin (platelets [2]; 8-bromo-cGMP 100 μM, FIG. 7A): promoted
platelet aggregation together with a subthreshold concentration of ristocetin (platelets [2]; PRP, agent added with subthreshold ristocetin (1 mg/mm [sic]) (or botrocetin), FIGS. 3B, 6A): induced integrin-dependent platelet aggregation
preincubation time required for a slight inhibitory effect (platelets [2]; in some experiments, not shown): 30 min
